According to PMC10286312, “Elimination Resistance: Characterizing Multi-compartment Toxicokinetics of the Neonicotinoid Thiacloprid in the Amphipod Gammarus pulex Using Bioconcentration and Receptor-Binding Assays” (Environmental Science & Technology, 2023):

Biological target: T1, nAChRs (nicotinic acetylcholine receptors) in G. pulex membrane protein extract
T1 construct: gene nAChR alpha; native whole-animal crude membrane protein pellet (43,000g)
Assay: equilibrium binding to membrane protein, unlabelled ligand, ultracentrifugation, online-SPE LC-HRMS/MS
Design: species or system Gammarus pulex
Details: 10 mM Tris-HCl pH 7.4, 23 °C, 2 h; one-site specific binding model; no displacement control described; read-out: best fit
Excerpt: equilibrium binding to membrane protein, unlabelled ligand, ultracentrifugation, online-SPE LC-HRMS/MS on nAChRs (nicotinic acetylcholine receptors) in G. pulex membrane protein extract

N#C/N=C1\SCCN1Cc1ccc(Cl)nc1 [thiacloprid]
Kd: 0.41 nM
